Laboratory results taken from BigSolDB 2.1.

Cc1ccc2cc(Br)ccc2n1
solubility (mole fraction)
Details | in DMF | in acetone | in acetonitrile | in ethanol | in ethyl acetate | in isopropanol | in methanol | in n-propanol | in toluene | in water
278.15 K | 0.00585 | 0.00678 | 0.00648 | 0.000938 | 0.0072 | 0.00191 | 0.000232 | 0.00218 | 0.00817 | 6.88e-06
283.15 K | 0.00675 | 0.00793 | 0.00743 | 0.00112 | 0.00844 | 0.00229 | 0.000276 | 0.00261 | 0.00953 | 8.1e-06
288.15 K | 0.00765 | 0.00926 | 0.00855 | 0.00131 | 0.0101 | 0.00274 | 0.000319 | 0.00317 | 0.0111 | 9.62e-06
293.15 K | 0.00869 | 0.0108 | 0.00974 | 0.00151 | 0.0117 | 0.0032 | 0.000372 | 0.00371 | 0.0132 | 1.13e-05
298.15 K | 0.00994 | 0.0126 | 0.0112 | 0.00179 | 0.0136 | 0.00375 | 0.000444 | 0.00438 | 0.0155 | 1.33e-05
303.15 K | 0.0116 | 0.0149 | 0.0131 | 0.00213 | 0.0159 | 0.00442 | 0.000525 | 0.00513 | 0.018 | 1.54e-05
308.15 K | 0.0137 | 0.0175 | 0.0154 | 0.00249 | 0.0187 | 0.00518 | 0.000613 | 0.00593 | 0.0212 | 1.82e-05
313.15 K | 0.0161 | 0.0204 | 0.0182 | 0.00289 | 0.0218 | 0.00608 | 0.000719 | 0.00687 | 0.0248 | 2.13e-05
318.15 K | 0.0188 | 0.0237 | 0.0213 | 0.00334 | 0.0255 | 0.00703 | 0.000849 | 0.0079 | 0.0286 | 2.48e-05
323.15 K | 0.0222 | 0.0276 | 0.0253 | 0.0039 | 0.0299 | 0.00812 | 0.000998 | 0.00914 | 0.0332 | 2.89e-05
